How the values were obtained:
[1] = target: T1, human recombinant cathepsin S (Homo sapiens, UniProt P25774); assay: Effect on the enzymatic activity of cathepsin S; assay type: biochemical; conditions: inhibitor; preincubated 15 minutes at 37° C.; substrate Z-Phe-Arg-AMC (6 μM)
T1 construct: host or cells: E. coli
Method: Compound 1 was dissolved in DMSO to a concentration of 100 mM; then a stock solution was serially diluted with DMSO. The maximum starting concentration of the substance is 100 μM. The effect was determined at 5 concentrations of the tested compounds, each concentration was studied twice. A human recombinant cathepsin S, expressed in E. coli was used in the experiment. Test compounds were preincubated for 15 minutes at 37° C. with an enzyme whose activity was determined by the rate of transformation of the substrate Z-Phe-Arg-AMC (6 μM) by the fluorescence spectroscopy (Protein Sci. 1996 April; 5(4):789-91).

[2] = target: T2, tachykinin receptor type 1 (NK1R) (Homo sapiens, UniProt P25103); assay: Activity of tachykinin receptor type 1 (NK1R), intracellular calcium, U373 cells; assay type: cell-based; conditions: antagonist, [Sar9, Met(O2)11]-SP (1 nM)
T2 construct: endogenous in cells; host or cells: U373 cells
Method: Compound 1 dissolved in DMSO to a concentration of 100 mM; then a stock solution was serially diluted with DMSO. The maximum starting concentration of the substance is 100 μM. The effect was determined at 5 concentrations of the tested compounds, each concentration was studied twice. U373 cells expressing NK1R were used in the experiment, said cells, after the preincubation with an [Sar9, Met(O2)11]-SP (1 nM) […], were incubated with Compound 1. The activity of receptors was determined according to the intracellular calcium concentration by the fluorescence spectroscopy (Glia. 1992; 6(2):89-95).

[3] = target: T3, bradykinin receptors B1 (BRDKB1) (Homo sapiens, UniProt P46663); assay: Activity of bradykinin receptor BRDKB1, intracellular calcium, CHO cells; assay type: cell-based; conditions: antagonist, LysdesArg9-BK agonist (3 nM)
T3 construct: expressed in transfected cells; host or cells: CHO cells
T3 sequence (P46663 1-353): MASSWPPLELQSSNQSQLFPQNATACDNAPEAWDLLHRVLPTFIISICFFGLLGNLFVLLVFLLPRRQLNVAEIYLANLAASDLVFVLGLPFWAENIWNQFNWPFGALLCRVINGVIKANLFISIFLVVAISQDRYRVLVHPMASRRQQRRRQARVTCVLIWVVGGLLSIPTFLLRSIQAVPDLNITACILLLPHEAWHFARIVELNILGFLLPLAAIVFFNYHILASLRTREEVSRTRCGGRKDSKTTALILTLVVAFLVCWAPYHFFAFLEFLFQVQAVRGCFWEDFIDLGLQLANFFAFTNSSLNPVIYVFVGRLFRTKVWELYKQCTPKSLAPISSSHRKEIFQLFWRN
Method: Compound 1 was dissolved in DMSO to a concentration of 100 mM; then a stock solution was serially diluted with DMSO. The maximum starting concentration of the substance is 100 μM. The effect was determined at 5 concentrations of the tested compounds, each concentration was studied twice. CHO cells expressing bradykinin receptors B1 were used in the experiment, these cells, after preincubation with a LysdesArg9-BK agonist (3 nM), were incubated with the test compound. The activity of receptors was determined according to the intracellular calcium concentration by fluorescence spectroscopy (Eur J Pharmacol. 2000 Mar. 24; 392(1-2):1-9).

NF-kB signaling pathway = assay: Activity of NF-kB signaling pathway, Jurkat lacZ reporter; assay type: cell-based; conditions: Homo sapiens; inhibitor; Jurkat T lymphocytes, β-galactosidase reporter, substrate FDG
indomethacin colitis = assay: Model of colitis induced by indomethacin; assay type: in vivo, male Wistar rats; conditions: 100 mg/kg; day 4; M ± m, n = 10
Method: The study was performed on male Wistar rats, which were subcutaneously injected with an indomethacin solution in a dose of 9 mg/kg for two days running to induce colitis. The injection solution was prepared as follows: first, indomethacin was dissolved in 100% ethanol, then it was diluted in 5% NaHCO3 solution. On the 4th day after euthanasia, the stomach and intestine were removed from the animals in the CO2 chamber, then the caecum was excised, 10 cm from the ileum and large intestine was cut off, and 5 cm—from the caecum, to assess gross lesions (J Ethnopharmacol. 2004 February; 90(2-3): 195-204).

[4] = tested on: diarrhea induced by castor oil; assay: Mouse model of diarrhea induced by castor oil; assay type: in vivo, Balb/c mice
Method: Balb/c mice, which starved for 24 hours, were given castor oil intragastrically. Then the animals were encaged into individual cages with a bottom covered with white paper, and time before the onset of diarrhea was noted. The observation time is 4 hours (J Pharm Pharmacol. 2015 February; 67(2):244-54).

[5] = Stability in blood plasma, guinea pig; assay type: in vitro ADME; conditions: for Content, % from the initial, Mean (n = 2): guinea pig blood plasma, 1 μM, 37° C.
Method: (§1) Compound 1 at a concentration of 1 μM was incubated for 24 hours in the blood plasma of human and various animal species (rats, mice, guinea pigs, rabbits, horses, dogs, bull, pygmy hogs) at 37° C. Aliquots were taken at time points of 0, 0.25, 1, 2, 4, 8 and 24 hours. In the case of blood plasma of rabbits and monkeys, Compound 1 was incubated for 4 hours, and aliquots were taken at time points 0, 0.25, 1, 4. After the protein precipitation with acetonitrile, samples were analyzed by HPLC-MS/MS to determine the concentration of Compound 1. Verapamil was used as a stable control.

[6] = Stability in blood plasma, monkey; assay type: in vitro ADME; conditions: 1 μM, 37° C.
Method: as §1

[7] = Stability in blood plasma, mouse; assay type: in vitro ADME; conditions: for Content, % from the initial, Mean (n = 2): mouse blood plasma, 1 μM, 37° C.
Method: as §1

[8] = Stability in blood plasma, rabbit; assay type: in vitro ADME; conditions: for Content, % from the initial, Mean (n = 2): rabbit blood plasma, 1 μM, 37° C.
Method: as §1

T1 sequence (P25774 115-331): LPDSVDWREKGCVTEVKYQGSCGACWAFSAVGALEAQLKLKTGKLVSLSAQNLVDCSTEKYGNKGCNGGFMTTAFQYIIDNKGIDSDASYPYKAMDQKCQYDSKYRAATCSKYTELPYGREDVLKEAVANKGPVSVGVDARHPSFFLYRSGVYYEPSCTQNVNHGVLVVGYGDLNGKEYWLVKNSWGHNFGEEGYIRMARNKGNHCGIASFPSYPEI
T2 sequence (P25103 whole entry): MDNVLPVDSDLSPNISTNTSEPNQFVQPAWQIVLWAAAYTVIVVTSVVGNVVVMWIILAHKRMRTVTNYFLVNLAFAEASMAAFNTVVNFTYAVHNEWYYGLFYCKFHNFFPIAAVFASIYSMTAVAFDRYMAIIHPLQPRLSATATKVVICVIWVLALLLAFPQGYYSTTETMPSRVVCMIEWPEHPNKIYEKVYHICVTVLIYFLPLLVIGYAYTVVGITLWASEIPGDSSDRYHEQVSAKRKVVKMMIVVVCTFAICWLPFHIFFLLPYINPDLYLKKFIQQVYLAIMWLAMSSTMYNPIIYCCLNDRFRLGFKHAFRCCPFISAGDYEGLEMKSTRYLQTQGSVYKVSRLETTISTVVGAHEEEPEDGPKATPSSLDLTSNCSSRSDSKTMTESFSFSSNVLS

O=C(Cc1ccc(O)cc1)N[C@@H](Cc1ccccc1)C(=O)OCc1ccccc1 [Compound 1, benzyl (2S)-2-[2-(4-hydroxyphenyl)acetamido]-3-phenylpropanoate] showed an IC50 [1] of 6.7 µM, an IC50 [2] of 4.1 µM and an IC50 [3] of 3.7 µM. For the same compound, the IC50 (NF-kB signaling pathway) was 9.9 µM, the “Macroscopic assessment of the lesion, Caecum” value (indomethacin colitis) was 0.4 ± 0.2 points and the “Macroscopic assessment of the lesion, Ileum” value (indomethacin colitis) was 0.6 ± 0.3& points. The “Macroscopic assessment of the lesion, Large intestine” value (indomethacin colitis) was 0.2 ± 0.1& points, the “Macroscopic assessment of the lesion, Overall assessment” value (indomethacin colitis) was 1.2 ± 0.4*& points and the “The time of onset of diarrhea” value ([4]; 50 mg/kg, M ± m, n = 10, observation 4 hours) was 42.00 ± 3.43& min. For the same compound, the “increase of the time to the onset of diarrhea” value ([4]; summary of Table 6) was 2 times, the “hydrolysis in the blood plasma (in words)” value (“hydrolysis” for short) ([5]; blood plasma of guinea pigs, after 15 minutes) was “almost completely hydrolyzed” and the “Content, % from the initial, Mean (n = 2)” value (“Content, % from the initial” for short) ([5]; 0 hour) was 100%. For the same compound, the “Content, % from the initial” value ([5]; 0.25 hour) was 0.00%, the “Content, % from the initial” value ([5]; 1 hour) was 0.00% and the “Content, % from the initial” value ([5]; 2 hour) was 0.00%. For the same compound, the “Content, % from the initial” value ([5]; 4 hour) was 0.00%, the “Content, % from the initial” value ([5]; 8 hour) was 0.00% and the “Content, % from the initial” value ([5]; 24 hour) was 0.00%. For the same compound, the “Content, % from the initial” value ([6]; 0 hour) was 100%, the “Content, % from the initial” value ([6]; 0.25 hour) was 38.3% and the “Content, % from the initial” value ([6]; 1 hour) was 1.69%. For the same compound, the “Content, % from the initial” value ([6]; 4 hour) was 0.00%, the “hydrolysis” value ([7]; blood plasma of mice, after 15 minutes) was “almost completely hydrolyzed” and the “Content, % from the initial” value ([7]; 0 hour) was 100%. The “Content, % from the initial” value ([7]; 0.25 hour) was 0.00%, the “Content, % from the initial” value ([7]; 1 hour) was 0.00% and the “Content, % from the initial” value ([7]; 2 hour) was 0.00%. The “Content, % from the initial” value ([7]; 4 hour) was 0.00%, the “Content, % from the initial” value ([7]; 8 hour) was 0.00% and the “Content, % from the initial” value ([7]; 24 hour) was 0.00%. The “hydrolysis” value ([8]; blood plasma of rabbits, after 15 minutes) was “almost completely hydrolyzed”, the “Content, % from the initial” value ([8]; 0 hour) was 100% and the “Content, % from the initial” value ([8]; 0.25 hour) was 0.00%. The “Content, % from the initial” value ([8]; 1 hour) was 0.00% and the “Content, % from the initial” value ([8]; 4 hour) was 0.00%.

— patent US11584709B2, “Multitarget drug for treating diseases in mammals” (“PHARMENTERPRISES EURASIA” LIMITED LIABILITY COMPANY, priority 2017, dated 2023)
